Source: US20130190223A1, “NONIMMUNOSUPPRESSIVE CYCLOSPORINE ANALOGUE MOLECULES” (ISOTECHNIKA PHARMA INC., priority 2008, published 2013)
Where two headings read alike, the source gives them in different places.

Legend:
CyP-D = molecular target: T1, CyP-D (Rattus norvegicus, UniProt P29117); format: biochemical; conditions: mitochondria isolated from rat liver, 190 μM calcium, swelling as decline in A540
T1 construct: Mitochondria were isolated from fresh rat liver; from tissue; host or cells: rat liver mitochondria
T1 sequence (P29117 30-206): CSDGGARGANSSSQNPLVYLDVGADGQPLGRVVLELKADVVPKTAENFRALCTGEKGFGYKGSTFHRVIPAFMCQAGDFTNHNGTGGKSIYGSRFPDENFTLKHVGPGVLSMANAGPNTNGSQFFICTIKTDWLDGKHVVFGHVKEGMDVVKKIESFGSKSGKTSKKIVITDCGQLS
Description: A mitochondria swelling assay was used to measure the efficacy of NICAMs in blocking CyP-D and mitochondrial permeability transition. Under certain pathological conditions, mitochondria lose the ability to regulate calcium levels, and excessive calcium accumulation in the mitochondrial matrix results in the opening of large pores in the inner mitochondrial membrane. Nonselective conductance of ions and molecules up to 1.5 kilodaltons through the pore, a process called mitochondrial permeability transition, leads to swelling of mitochondria and other events which culminate in cell death. […] In general, mitochondria isolated from rat liver were exposed to calcium to induce MPTP opening in the absence or presence of test compounds, and calcium-induced swelling was measured as a reduction in light absorbance at 540 nm.
Mitochondria were isolated from fresh rat liver. Ice-cold or 4° C. conditions were used throughout all steps of the isolation. The liver was rinsed thoroughly and chopped in a small volume of isolation buffer (IB; 10 mM Hepes, 70 mM sucrose, 210 mM mannitol, 0.5 mM EDTA). Aliquots of the minced liver were homogenized in IB using a Teflon-glass Potter-Elvehjem tissue grinder and passed through a cell screen filter. The filtered homogenate was centrifuged at 600 g for 10 min, then the resulting supernatant centrifuged at 7000 g for 10 min. The supernatant was discarded, and the pellet resuspended in wash buffer (10 mM Hepes, 70 mM sucrose, 210 mM mannitol) and centrifuged a final time at 7000 g for 10 min. The supernatant was discarded, and the mitochondria-containing pellet suspended and stored on ice in 2 mL of respiration buffer (RB; 5 mM Hepes, 70 mM sucrose, 210 mM mannitol, 10 mM sodium succinate, 1 mM sodium phosphate dibasic).
Test compound solutions were prepared from 10 mg/ml stocks (dimethyl sulfoxide vehicle) first by diluting the test compound 1000× into respiration buffer #2 (RB2; 5 mM Hepes, 70 mM sucrose, 210 mM mannitol, 10 mM sodium succinate, 1 mM sodium phosphate dibasic, 1% fetal bovine serum, 2 μM rotenone), then by 3×-serial dilutions in RB2 to achieve test compound concentrations of 10000, 3333, 1111, 370, 123, 41, and 14 ng/mL. Polystyrene tubes and plates were used for all preparations.
Swelling assays were completed in a 96-well flat-bottom polystyrene plates. In each well a 10-μL aliquot of mitochondria suspension, equivalent to 100-200 μg total protein, was combined with 90 μL of test compound, incubated for 10 min, then the baseline absorbance measured on a plate reader (540 nm wavelength; A540). Swelling was induced by adding 5 μL of 4 mM calcium chloride to achieve a final calcium concentration of 190 μM. Mitochondria swelling was indicated by a decline in A540. […] Duplicate samples were assayed for each test compound concentration.
Means and ranges of duplicate samples are shown.

human lymphocytes = test: Immunosuppressive potency: inhibition of proliferation of anti-CD3 stimulated human lymphocytes (CFSE, flow cytometry); format: cell-based; conditions: relative potency: IC50 for inhibition of cell division normalized to CsA, 3 days incubation
Procedure: The immunosuppressive potency of test compounds was assessed by measuring their ability to inhibit the proliferation of human lymphocytes in cell culture. Lymphocytes were isolated from blood of normal human volunteers by Ficoll-gradient centrifugation and stained with 2 μg/ml carboxyfluoroscein diacetate succinimydyl ester (CFSE), a fluorescent cell division tracer molecule. Cells were stimulated through the CD3/T-cell receptor by seeding cells at 300,000/well into 96-well flat-bottom, high-binding plates coated with 1 μg/ml UCHT-1 anti-human CD3 antibody. Test compounds were prepared first as 10 mg/ml stock solutions in dimethylsulfoxide (DMSO). Test solutions were prepared by 500-fold dilution of the DMSO stock solutions, then 3-fold serial dilutions in cell culture medium (RPMI+5% FBS+penicillin-steptomycin) for a total of 7 concentrations per compound. Test solutions were added in equal volume to the culture wells containing cells to achieve final concentrations after dilution of 13.7 ng/ml-10,000 ng/ml. […] Following 3 days incubation cells were stained with CD95-APC (lymphocyte activation marker) and analyzed by flow cytometry with a Becton Dickinson FACSCalibur. Percentage cell division was assessed in forward/side-scatter-gated lymphocytes by measuring the proportion of cells that underwent one or more cell divisions as determined by serial halving of CFSE intensity. The nondivided parent population was determined from samples maintained in culture without anti-CD3 stimulation. IC50 values for inhibition of cell division were determined by nonlinear regression analysis. […]

calcineurin = conditions: literature statement; cited from earlier work
CyP-A = CyP-A (Homo sapiens, UniProt P62937); conditions: cited from earlier work
Sequence of CyP-A (P62937 whole entry): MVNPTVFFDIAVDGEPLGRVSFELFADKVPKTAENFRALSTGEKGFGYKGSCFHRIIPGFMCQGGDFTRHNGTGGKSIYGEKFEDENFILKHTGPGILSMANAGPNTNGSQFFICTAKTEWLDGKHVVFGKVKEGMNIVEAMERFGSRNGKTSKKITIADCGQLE

## CCOC(=O)CCCCCCC=CCC(C)C(O)C1C(=O)NC(CC)C(=O)N(C)CC(=O)N(C)C(CC(C)C)C(=O)NC(C(C)C)C(=O)N(C)C(CC(C)C)C(=O)NC(C)C(=O)NC(C)C(=O)N(C)C(CC(C)C)C(=O)N(C)C(CC(C)C)C(=O)N(C)C(C(C)C)C(=O)N1C (stereo not drawn) [Compound 420-113]
CyP-D
  CYP-D Inhibition (% Potency Vs CsA): 33.2%
Human lymphocytes
  Immunosuppression (% Relative to CsA): <1%

## CCC1NC(=O)C(C(O)C(C)CC=CCCCCCCC(=O)N(C)C)N(C)C(=O)C(C(C)C)N(C)C(=O)C(CC(C)C)N(C)C(=O)C(CC(C)C)N(C)C(=O)C(C)NC(=O)C(C)NC(=O)C(CC(C)C)N(C)C(=O)C(C(C)C)NC(=O)C(CC(C)C)N(C)C(=O)CN(C)C1=O (stereo not drawn) [Compound 420-114]
CyP-D
  CYP-D Inhibition (% Potency Vs CsA): 63.4%
Human lymphocytes
  Immunosuppression (% Relative to CsA): <1%

## CCC1NC(=O)C(C(O)C(C)CC=CCCCCCCNC(=O)OC(C)(C)C)N(C)C(=O)C(C(C)C)N(C)C(=O)C(CC(C)C)N(C)C(=O)C(CC(C)C)N(C)C(=O)C(C)NC(=O)C(C)NC(=O)C(CC(C)C)N(C)C(=O)C(C(C)C)NC(=O)C(CC(C)C)N(C)C(=O)CN(C)C1=O (stereo not drawn) [Compound 420-120]
CyP-D
  CYP-D Inhibition (% Potency Vs CsA): 9.4%
Human lymphocytes
  Immunosuppression (% Relative to CsA): 3%

## C/C=C/C[C@@H](C)[C@@H](O)[C@H]1C(=O)N[C@@H](CC)C(=O)N(C)[C@H](C)C(=O)N(CC)[C@@H](C(C)C)C(=O)N[C@@H](C(C)C)C(=O)N(C)[C@@H](CC(C)C)C(=O)N[C@@H](C)C(=O)N[C@H](C)C(=O)N(C)[C@@H](CC(C)C)C(=O)N(C)[C@@H](CC(C)C)C(=O)N(C)[C@@H](C(C)C)C(=O)N1C [DEBIO 025, MeAla^3EtVal^4-Cyclosporin]
calcineurin
  immunosuppressive activity: no immunosuppressive activity
CyP-A
  binding affinity for CyP-A: retains binding affinity for CyP-A

## C/C=C/C[C@@H](C)[C@@H](O)[C@H]1C(=O)N[C@@H](CC)C(=O)N(C)CC(=O)N(C)[C@@H]([C@@H](C)CC)C(=O)N[C@@H](C(C)C)C(=O)N(C)[C@@H](CC(C)C)C(=O)N[C@@H](C)C(=O)N[C@H](C)C(=O)N(C)[C@@H](CC(C)C)C(=O)N(C)[C@@H](CC(C)C)C(=O)N(C)[C@@H](C(C)C)C(=O)N1C [NIM 811, Melle^4-cyclosporine]
calcineurin
  immunosuppressive activity: no immunosuppressive activity
CyP-A; literature statement
  binding affinity for CyP-A: retains binding affinity for CyP-A

## C/C=C/C[C@@H](C)[C@@H](O)[C@H]1C(=O)N[C@@H](CC)C(=O)N(C)[C@H](SCCN(C)C)C(=O)N(C)[C@@H](CC(C)(C)O)C(=O)N[C@@H](C(C)C)C(=O)N(C)[C@@H](CC(C)C)C(=O)N[C@@H](C)C(=O)N[C@H](C)C(=O)N(C)[C@@H](CC(C)C)C(=O)N(C)[C@@H](CC(C)C)C(=O)N(C)[C@@H](C(C)C)C(=O)N1C [SCY-635, DimethylaminoethylthioSar^3-hydroxyLeu^4-Cyclosporin]
calcineurin
  immunosuppressive activity: no immunosuppressive activity
CyP-A
  binding affinity for CyP-A: retains binding affinity for CyP-A
